# Test results reported in PMC10041525, “New Dual Inhibitors of Bacterial Topoisomerases with Broad-Spectrum Antibacterial Activity and In Vivo Efficacy against Vancomycin-Intermediate Staphylococcus aureus” (Journal of Medicinal Chemistry, 2023).
# Test system: 100 A. baumannii strains (50 MDR, 50 non-MDR)
# Experiment: MIC broth microdilution at IHMA Europe, panel of 100 strains
# Format: cell-based
# Settings: Acinetobacter baumannii
compound,measurement,setting,value
"C[C@H]1COc2c(N3CCN(C)CC3)c(F)cc3c(=O)c(C(=O)O)cn1c23.C[C@H]1COc2c(N3CCN(C)CC3)c(F)cc3c(=O)c(C(=O)O)cn1c23.O [Levofloxacin, levofloxacin]",MIC,"A. baumannii IHMA 1769393, Lithuania 2018, Non-MDR",≤ 0.25 µg/mL
same,MIC,"A. baumannii IHMA 1769782, Israel 2018, MDR",4 µg/mL
same,MIC,"A. baumannii IHMA 1769910, Israel 2018, Non-MDR",≤ 0.25 µg/mL
same,MIC,"A. baumannii IHMA 1790317, Czech Republic 2018, Non-MDR",≤ 0.25 µg/mL
same,MIC,"A. baumannii IHMA 1790916, Romania 2018, Non-MDR",≤ 0.25 µg/mL
same,MIC,"A. baumannii IHMA 1791877, Israel 2018, MDR",4 µg/mL
same,MIC,"A. baumannii IHMA 1792961, Jordan 2018, MDR",8 µg/mL
same,MIC,"A. baumannii IHMA 1795669, Tunisia 2018, Non-MDR",≤ 0.25 µg/mL
same,MIC,"A. baumannii IHMA 1814276, Lebanon 2018, MDR",16 µg/mL
same,MIC,"A. baumannii IHMA 1815198, Kuwait 2018, MDR",16 µg/mL
same,MIC,"A. baumannii IHMA 1815856, Israel 2018, MDR",8 µg/mL
same,MIC,"A. baumannii IHMA 1821468, South Africa 2018, Non-MDR",≤ 0.25 µg/mL
same,MIC,"A. baumannii IHMA 1829500, Georgia 2018, Non-MDR",≤ 0.25 µg/mL
same,MIC,"A. baumannii IHMA 1830924, United Kingdom 2018, Non-MDR",≤ 0.25 µg/mL
same,MIC,"A. baumannii IHMA 1849819, Kuwait 2018, MDR",16 µg/mL
same,MIC,"A. baumannii IHMA 1849829, Kuwait 2018, Non-MDR",≤ 0.25 µg/mL
same,MIC,"A. baumannii IHMA 1857118, Slovenia 2018, Non-MDR",≤ 0.25 µg/mL
same,MIC,"A. baumannii IHMA 1863631, France 2018, Non-MDR",≤ 0.25 µg/mL
same,MIC,"A. baumannii IHMA 1870054, United States 2018, Non-MDR",≤ 0.25 µg/mL
same,MIC,"A. baumannii IHMA 1884428, Italy 2018, Non-MDR",≤ 0.25 µg/mL
same,MIC,"A. baumannii IHMA 1884990, Germany 2018, Non-MDR",≤ 0.25 µg/mL
same,MIC,"A. baumannii IHMA 1900538, Turkey 2018, Non-MDR",≤ 0.25 µg/mL
same,MIC,"A. baumannii IHMA 1913773, Kenya 2018, Non-MDR",≤ 0.25 µg/mL
same,MIC,"A. baumannii IHMA 1926285, Qatar 2018, Non-MDR",≤ 0.25 µg/mL
same,MIC,"A. baumannii IHMA 1926288, Qatar 2018, MDR",> 16 µg/mL
same,MIC,"A. baumannii IHMA 1957343, Portugal 2019, Non-MDR",≤ 0.25 µg/mL
same,MIC,"A. baumannii IHMA 1963732, Turkey 2019, MDR",16 µg/mL
same,MIC,"A. baumannii IHMA 1967860, Spain 2019, Non-MDR",≤ 0.25 µg/mL
same,MIC,"A. baumannii IHMA 1971673, Latvia 2019, MDR",16 µg/mL
same,MIC,"A. baumannii IHMA 1975075, Israel 2019, Non-MDR",≤ 0.25 µg/mL
same,MIC,"A. baumannii IHMA 1977077, Kuwait 2019, Non-MDR",≤ 0.25 µg/mL
same,MIC,"A. baumannii IHMA 1983151, Greece 2019, MDR",8 µg/mL
same,MIC,"A. baumannii IHMA 1984665, Lithuania 2019, MDR",16 µg/mL
same,MIC,"A. baumannii IHMA 1986678, Turkey 2019, Non-MDR",≤ 0.25 µg/mL
same,MIC,"A. baumannii IHMA 1986738, Turkey 2019, MDR",16 µg/mL
same,MIC,"A. baumannii IHMA 1987162, Croatia 2019, MDR",8 µg/mL
same,MIC,"A. baumannii IHMA 1993615, Turkey 2019, MDR",8 µg/mL
same,MIC,"A. baumannii IHMA 1994284, Italy 2019, MDR",> 16 µg/mL
same,MIC,"A. baumannii IHMA 1995161, Czech Republic 2019, Non-MDR",≤ 0.25 µg/mL
same,MIC,"A. baumannii IHMA 1997936, Morocco 2019, Non-MDR",≤ 0.25 µg/mL
same,MIC,"A. baumannii IHMA 1999178, Belgium 2019, Non-MDR",≤ 0.25 µg/mL
same,MIC,"A. baumannii IHMA 2003279, Turkey 2019, MDR",8 µg/mL
same,MIC,"A. baumannii IHMA 2014367, Jordan 2019, Non-MDR",≤ 0.25 µg/mL
same,MIC,"A. baumannii IHMA 2014931, South Africa 2019, Non-MDR",≤ 0.25 µg/mL
same,MIC,"A. baumannii IHMA 2019315, Romania 2019, Non-MDR",≤ 0.25 µg/mL
same,MIC,"A. baumannii IHMA 2020360, Croatia 2019, MDR",16 µg/mL
same,MIC,"A. baumannii IHMA 2031511, Greece 2019, Non-MDR",≤ 0.25 µg/mL
same,MIC,"A. baumannii IHMA 2031524, Greece 2019, MDR",4 µg/mL
same,MIC,"A. baumannii IHMA 2034657, Tunisia 2019, Non-MDR",≤ 0.25 µg/mL
same,MIC,"A. baumannii IHMA 2035089, Serbia 2019, MDR",16 µg/mL
same,MIC,"A. baumannii IHMA 2035134, Serbia 2019, Non-MDR",≤ 0.25 µg/mL
same,MIC,"A. baumannii IHMA 2038976, Hungary 2019, MDR",8 µg/mL
same,MIC,"A. baumannii IHMA 2051503, Serbia 2019, MDR",16 µg/mL
same,MIC,"A. baumannii IHMA 2058329, Slovenia 2019, Non-MDR",≤ 0.25 µg/mL
same,MIC,"A. baumannii IHMA 2065587, France 2019, Non-MDR",≤ 0.25 µg/mL
same,MIC,"A. baumannii IHMA 2099294, United Kingdom 2019, Non-MDR",≤ 0.25 µg/mL
same,MIC,"A. baumannii IHMA 2129256, Qatar 2019, Non-MDR",≤ 0.25 µg/mL
same,MIC,"A. baumannii IHMA 2154584, Israel 2020, MDR",8 µg/mL
same,MIC,"A. baumannii IHMA 2155340, Kenya 2020, MDR",16 µg/mL
same,MIC,"A. baumannii IHMA 2156634, Turkey 2020, MDR",16 µg/mL
same,MIC,"A. baumannii IHMA 2156709, Turkey 2020, MDR",16 µg/mL
same,MIC,"A. baumannii IHMA 2157614, Australia 2020, Non-MDR",≤ 0.25 µg/mL
same,MIC,"A. baumannii IHMA 2177232, Lithuania 2020, MDR",16 µg/mL
same,MIC,"A. baumannii IHMA 2177489, Lithuania 2020, MDR",16 µg/mL
same,MIC,"A. baumannii IHMA 2178574, Ukraine 2020, Non-MDR",≤ 0.25 µg/mL
same,MIC,"A. baumannii IHMA 2180134, Malaysia 2020, Non-MDR",0.5 µg/mL
same,MIC,"A. baumannii IHMA 2180142, Malaysia 2020, MDR",4 µg/mL
